Test results as given in ChEMBL document CHEMBL1152921 (Eur J Med Chem, 2009).
Each block holds one compound with its values, some of them ahead of it. Activity calls are given as the source filed them. No cut-off for these calls is given here. Where a SMILES comes first, the peptide text is derived from it. Bridges are numbered along the chain shown (N, C = ends). [ ]: non-standard residue; d: D form. Aic = NC1(C(=O)O)Cc2ccccc2C1

What was measured:
Rattus norvegicus [1] = test: Activity at vasopressin V1a receptor in phenoxybenzamine-treated Wistar rat uterus assessed as induction of arterial vasopressor activity up to 0.15 mg/kg; assay type: functional, organism-based; set-up: dose 0.15 mg/kg
Rattus norvegicus [2] = test: (§1) Antidiuretic activity in fasted and hydrated Wistar rat assessed as compound required to yield antidiuresis time of 60 mins required for urinary excretion of half the water load at 0.001 to 100 nmol/kg, sc administered immediately after water loading by modified Burn test; assay type: functional, Urine
Rattus norvegicus [3] = test: (§2) Antidiuretic activity in fasted and hydrated Wistar rat assessed as compound required to yield antidiuresis time of 200 mins required for urinary excretion of half the water load at 0.001 to 100 nmol/kg, sc administered immediately after water loading by modified Burn test; assay type: functional, Urine
Rattus norvegicus [4] = test: as §1, with “compound potency” for “compound required”, “test relative to 1-deamino-8-D-arginine vasopressin” for “test”; assay type: functional, Urine
Rattus norvegicus [5] = test: as §2, with “compound potency” for “compound required”, “test relative to 1-deamino-8-D-arginine vasopressin” for “test”; assay type: functional, Urine
[6] = molecular target: Vasopressin V1a receptor (Rattus norvegicus) (UniProt P30560); test: Agonist activity at vasopressin V1a receptor in phenoxybenzamine-treated Wistar rat uterus assessed as arterial vasopressor activity; assay type: functional, tissue-based
Chain of Vasopressin V1a receptor (Rattus norvegicus) (P30560 whole entry, looked up): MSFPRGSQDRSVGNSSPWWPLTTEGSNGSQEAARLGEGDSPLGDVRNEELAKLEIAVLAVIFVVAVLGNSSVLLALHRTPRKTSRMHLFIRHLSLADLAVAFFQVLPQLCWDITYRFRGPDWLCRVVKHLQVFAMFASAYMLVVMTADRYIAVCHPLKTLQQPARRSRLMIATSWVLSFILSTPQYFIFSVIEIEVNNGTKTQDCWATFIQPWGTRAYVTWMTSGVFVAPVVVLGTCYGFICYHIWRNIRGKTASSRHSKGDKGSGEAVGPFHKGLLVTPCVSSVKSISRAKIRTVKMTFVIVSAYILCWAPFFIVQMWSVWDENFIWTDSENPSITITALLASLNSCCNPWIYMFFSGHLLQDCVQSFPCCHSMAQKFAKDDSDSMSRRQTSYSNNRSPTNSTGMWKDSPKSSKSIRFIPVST

Vasopressin V1a receptor = Vasopressin V1a receptor (Rattus norvegicus, UniProt P30560); test: Antagonist activity at vasopressin V1a receptor in phenoxybenzamine-treated Wistar rat uterus assessed as inhibition of vasopressin-induced arterial vasopressor activity treated 1 min prior to vasopressin challenge; assay type: functional, tissue-based; settings: for Kb: read-out: pA2 (converted)
Chain of Vasopressin V1a receptor (P30560 whole entry): as the sequence (P30560 whole entry, looked up) above

Oxytocin receptor = molecular target: T1, Oxytocin receptor (Rattus norvegicus, UniProt P70536); assay type: functional, tissue-based, Wistar, Uterus
T1 sequence (P70536 whole entry): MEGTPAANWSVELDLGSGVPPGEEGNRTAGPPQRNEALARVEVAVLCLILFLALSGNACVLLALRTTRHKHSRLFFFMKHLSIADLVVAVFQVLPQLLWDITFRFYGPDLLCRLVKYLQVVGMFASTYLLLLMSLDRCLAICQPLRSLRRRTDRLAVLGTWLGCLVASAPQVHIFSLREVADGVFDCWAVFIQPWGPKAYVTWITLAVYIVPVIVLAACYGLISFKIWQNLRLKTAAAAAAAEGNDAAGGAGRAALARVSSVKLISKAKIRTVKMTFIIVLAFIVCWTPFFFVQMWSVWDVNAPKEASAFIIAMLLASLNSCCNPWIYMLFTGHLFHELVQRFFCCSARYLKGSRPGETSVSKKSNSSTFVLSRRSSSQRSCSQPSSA

[7] = Volume of distribution in Wistar rat; assay type: ADME, organism-based; settings: in vivo

SMILES: CC(C)[C@@H]1NC(=O)[C@H](Cc2ccccc2)NC(=O)[C@H](C(c2ccccc2)c2ccccc2)NC(=O)CCSSC[C@@H](C(=O)N2CCC[C@H]2C(=O)N[C@H](CCCNC(=N)N)C(=O)NCC(N)=O)NC(=O)[C@H](CC(N)=O)NC1=O (stereo in doubt; form 1) [listing 1 of 2 here]
Activity (Rattus norvegicus [1]): inactive

SMILES: N=C(N)NCCC[C@H](NC(=O)[C@@H]1CCCN1C(=O)[C@@H]1CSSC2(CCCCC2)CC(=O)N[C@@H](C(c2ccccc2)c2ccccc2)C(=O)N[C@@H](Cc2ccccc2)C(=O)N[C@@H](CCC(N)=O)C(=O)N[C@@H](CC(N)=O)C(=O)N1)C(=O)NCC(N)=O
Activity (Rattus norvegicus [2]): <4.5 IU/mg | Activity (Rattus norvegicus [1]): inactive | Activity (Rattus norvegicus [3]): <4.5 IU/mg | Activity (Rattus norvegicus [4]): <0.1% | Activity (Rattus norvegicus [5]): <0.1%

Activity [6]: 32 IU/mg
SMILES: CC(C)[C@@H]1NC(=O)[C@H](Cc2ccccc2)NC(=O)[C@H](Cc2ccc(O)cc2)NC(=O)[C@@H](N)CSSC[C@@H](C(=O)N2CCC[C@H]2C(=O)N[C@@H](CCCNC(=N)N)C(=O)NCC(N)=O)NC(=O)[C@H](CC(N)=O)NC1=O (H-CYFVNCPRG-NH2; disulfide 1-6)
Activity (Rattus norvegicus [2]): 758 IU/mg

SMILES: N=C(N)NCCCC(NC(=O)[C@@H]1CCCN1C(=O)[C@@H]1CSSCCC(=O)N[C@@H](Cc2ccc(O)cc2)C(=O)N[C@@H](Cc2ccccc2)C(=O)N[C@@H](CCC(N)=O)C(=O)N[C@@H](CC(N)=O)C(=O)N1)C(=O)NCC(N)=O (single isomer, unassigned) [DESMOPRESSIN]
Activity (Rattus norvegicus [2]): 1300 IU/mg | Activity (Rattus norvegicus [4]): 73.9% | Activity (Rattus norvegicus [5]): 97.3%

SMILES: CC(C)[C@@H]1NC(=O)[C@H](Cc2ccccc2)NC(=O)[C@H](C(c2ccccc2)c2ccccc2)NC(=O)CCSSC[C@@H](C(=O)N2CCC[C@H]2C(=O)N[C@H](CCCNC(=N)N)C(=O)NCC(N)=O)NC(=O)[C@H](CC(N)=O)NC1=O (stereo in doubt; form 1) [listing 2 of 2 here]
Activity (Rattus norvegicus [2]): 100 IU/mg | Activity (Rattus norvegicus [3]): 4500 IU/mg | Activity (Rattus norvegicus [4]): 2.2% | Activity (Rattus norvegicus [5]): 1.8%

Kb (Vasopressin V1a receptor): > 1580 nM
SMILES: CC(C)[C@@H]1NC(=O)[C@H](Cc2ccccc2)NC(=O)[C@@H](C(c2ccccc2)c2ccccc2)NC(=O)CCSSC[C@@H](C(=O)N2CCC[C@H]2C(=O)N[C@H](CCCNC(=N)N)C(=O)NCC(N)=O)NC(=O)[C@H](CC(N)=O)NC1=O
Activity (Rattus norvegicus [2]): 9000 IU/mg | Activity (Rattus norvegicus [3]): 450000 IU/mg | Activity (Rattus norvegicus [4]): 200% | Activity (Rattus norvegicus [5]): 150%

Activity [6]: 9.4 IU/mg
SMILES: N=C(N)NCCC[C@H](NC(=O)[C@@H]1CCCN1C(=O)[C@@H]1CSSC[C@H](N)C(=O)NC2(Cc3ccccc3C2)C(=O)N[C@@H](Cc2ccccc2)C(=O)N[C@@H](CCC(N)=O)C(=O)N[C@@H](CC(N)=O)C(=O)N1)C(=O)NCC(N)=O (H-C[Aic]FQNCPRG-NH2; disulfide 1-6)
Activity (Rattus norvegicus [2]): 450 IU/mg | Activity (Rattus norvegicus [3]): 45000 IU/mg | Activity (Rattus norvegicus [4]): 10% | Activity (Rattus norvegicus [5]): 18%

SMILES: N=C(N)NCCC[C@H](NC(=O)[C@@H]1CCCN1C(=O)[C@@H]1CSSCCC(=O)NC(C(c2ccccc2)c2ccccc2)C(=O)N[C@@H](Cc2ccccc2)C(=O)N[C@@H](CCC(N)=O)C(=O)N[C@@H](CC(N)=O)C(=O)N1)C(=O)NCC(N)=O (single isomer, unassigned)
Activity (Rattus norvegicus [2]): 450 IU/mg | Activity (Rattus norvegicus [3]): 45000 IU/mg | Activity (Rattus norvegicus [4]): 10% | Activity (Rattus norvegicus [5]): 18%

SMILES: N=C(N)NCCC[C@@H](NC(=O)[C@@H]1CCCN1C(=O)[C@@H]1CSSCCC(=O)N[C@H](C(c2ccccc2)c2ccccc2)C(=O)N[C@@H](Cc2ccccc2)C(=O)N[C@@H](CCC(N)=O)C(=O)N[C@@H](CC(N)=O)C(=O)N1)C(=O)NCC(N)=O
Activity (Rattus norvegicus [2]): 9000 IU/mg | Activity (Rattus norvegicus [3]): 225000 IU/mg | Activity (Rattus norvegicus [4]): 200% | Activity (Rattus norvegicus [5]): 100%

SMILES: N=C(N)NCCC[C@H](NC(=O)[C@@H]1CCCN1C(=O)[C@@H]1CSSC2(CCCCC2)CC(=O)N[C@H](C(c2ccccc2)c2ccccc2)C(=O)N[C@@H](Cc2ccccc2)C(=O)N[C@@H](CCC(N)=O)C(=O)N[C@@H](CC(N)=O)C(=O)N1)C(=O)NCC(N)=O
pA2 (Vasopressin V1a receptor): 7.4 | pA2 (Oxytocin receptor): 6.83

SMILES: N=C(N)NCCC[C@@H](NC(=O)[C@@H]1CCCN1C(=O)[C@@H]1CSSCCC(=O)N[C@@H](C(c2ccccc2)c2ccccc2)C(=O)N[C@@H](Cc2ccccc2)C(=O)N[C@@H](CCC(N)=O)C(=O)N[C@@H](CC(N)=O)C(=O)N1)C(=O)NCC(N)=O
Activity (Rattus norvegicus [2]): 30 IU/mg | Activity (Rattus norvegicus [1]): inactive | Activity (Rattus norvegicus [3]): 20000 IU/mg | Activity (Rattus norvegicus [4]): 0.7% | Activity (Rattus norvegicus [5]): 8%

SMILES: NC(=O)CC[C@@H]1NC(=O)[C@H](Cc2ccccc2)NC(=O)[C@H](Cc2ccc(O)cc2)NC(=O)[C@@H](N)CSSC[C@@H](C(=O)N2CCC[C@H]2C(=O)N[C@H](CCCN=C(N)N)C(=O)NCC(N)=O)NC(=O)[C@H](CC(N)=O)NC1=O
Activity (Rattus norvegicus [2]): 111 IU/mg | Activity (Rattus norvegicus [4]): 23.2% | Activity (Rattus norvegicus [5]): 1.7%

SMILES: CC(C)[C@@H]1NC(=O)[C@H](Cc2ccccc2)NC(=O)[C@H](C(c2ccccc2)c2ccccc2)NC(=O)CCSSC[C@@H](C(=O)N2CCC[C@H]2C(=O)N[C@@H](CCCNC(=N)N)C(=O)NCC(N)=O)NC(=O)[C@H](CC(N)=O)NC1=O
Activity (Rattus norvegicus [2]): 100 IU/mg | Activity (Rattus norvegicus [1]): inactive | Activity (Rattus norvegicus [3]): 20000 IU/mg | Activity (Rattus norvegicus [4]): 2.2% | Activity (Rattus norvegicus [5]): 8%

SMILES: N=C(N)NCCC[C@@H](NC(=O)[C@@H]1CCCN1C(=O)[C@@H]1CSSC[C@H](N)C(=O)N[C@@H](C(c2ccccc2)c2ccccc2)C(=O)N[C@@H](Cc2ccccc2)C(=O)N[C@@H](CCC(N)=O)C(=O)N[C@@H](CC(N)=O)C(=O)N1)C(=O)NCC(N)=O
Activity (Rattus norvegicus [2]): 30 IU/mg | Activity (Rattus norvegicus [1]): inactive | Activity (Rattus norvegicus [3]): 3000 IU/mg | Activity (Rattus norvegicus [4]): 0.7% | Activity (Rattus norvegicus [5]): 1.2%

Kb (Vasopressin V1a receptor): > 1580 nM
SMILES: CC(C)[C@@H]1NC(=O)[C@H](Cc2ccccc2)NC(=O)[C@@H](C(c2ccccc2)c2ccccc2)NC(=O)CCSSC[C@@H](C(=O)N2CCC[C@H]2C(=O)N[C@@H](CCCNC(=N)N)C(=O)NCC(N)=O)NC(=O)[C@H](CC(N)=O)NC1=O (stereo in doubt)

SMILES: N=C(N)NCCC[C@H](NC(=O)[C@@H]1CCCN1C(=O)[C@@H]1CSSC[C@H](N)C(=O)N[C@@H](Cc2ccc(O)cc2)C(=O)N[C@@H](Cc2ccccc2)C(=O)N[C@@H](CCC(N)=O)C(=O)N[C@@H](CC(N)=O)C(=O)N1)C(=O)NCC(N)=O [VASOPRESSIN]
Activity (Rattus norvegicus [2]): 450 IU/mg | Vd [7]: 0.067 L/kg | Activity (Rattus norvegicus [3]): 450 IU/mg | Activity (Rattus norvegicus [4]): 10% | Activity (Rattus norvegicus [5]): 0.125%

SMILES: CC(C)[C@@H]1NC(=O)[C@H](Cc2ccccc2)NC(=O)[C@H](C(c2ccccc2)c2ccccc2)NC(=O)CCSSC[C@@H](C(=O)N2CCC[C@H]2C(=O)N[C@H](CCCNC(=N)N)C(=O)NCC(N)=O)NC(=O)[C@H](CC(N)=O)NC1=O (stereo in doubt; form 2)
Activity (Rattus norvegicus [2]): 4500 IU/mg | Activity (Rattus norvegicus [3]): 450000 IU/mg | Activity (Rattus norvegicus [4]): 100% | Activity (Rattus norvegicus [5]): 150%

SMILES: N=C(N)NCCC[C@@H](NC(=O)[C@@H]1CCCN1C(=O)[C@@H]1CSSCCC(=O)N[C@@H](Cc2ccc(O)cc2)C(=O)N[C@@H](Cc2ccccc2)C(=O)N[C@@H](CCC(N)=O)C(=O)N[C@@H](CC(N)=O)C(=O)N1)C(=O)NCC(N)=O [DESMOPRESSIN]
Activity (Rattus norvegicus [2]): 800 IU/mg | Activity (Rattus norvegicus [4]): 100% | Activity (Rattus norvegicus [5]): 100%

SMILES: N=C(N)NCCC[C@H](NC(=O)[C@@H]1CCCN1C(=O)[C@@H]1CSSCCC(=O)N[C@H](C(c2ccccc2)c2ccccc2)C(=O)N[C@@H](Cc2ccccc2)C(=O)N[C@@H](CCC(N)=O)C(=O)N[C@@H](CC(N)=O)C(=O)N1)C(=O)NCC(N)=O
Activity (Rattus norvegicus [2]): 4500 IU/mg | Activity (Rattus norvegicus [1]): inactive | Activity (Rattus norvegicus [3]): 200000 IU/mg | Activity (Rattus norvegicus [4]): 100% | Activity (Rattus norvegicus [5]): 80%
